The results in this text go back to patent US7179831B2, “5-[3-(4-benzyloxyphenylthio)-fur-2-yl]-imidazolidin-2, 4-dione and analogues as inhibitors of macrophage elastase” (Quest Pharmaceutical Services, priority 2004, dated 2007).

Holding throughout (assay type): biochemical
What all share (settings): recombinant human active domain, substrate 4 uM, room temperature

In one assay the target is T1, MMP-12 (Homo sapiens, UniProt P39900).
T1 construct: All the enzymes are recombinant human active domains from E. coli (Biomol); purchased Biomol; host or cells: E. coli
T1 sequence (P39900 106-263 limits assumed): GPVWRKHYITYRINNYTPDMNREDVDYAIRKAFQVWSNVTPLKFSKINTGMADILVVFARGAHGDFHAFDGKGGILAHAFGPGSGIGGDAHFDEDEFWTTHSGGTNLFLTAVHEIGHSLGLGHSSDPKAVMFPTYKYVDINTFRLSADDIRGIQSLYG
The experiment in a line: MMP inhibitory assay, fluorescent substrate, MMP-12. As to the method:
(§1) The enzymatic activities of MMPs were assayed according to manufacture protocols (Biomol Reseaerch Laboratory, Inc. E-mail: info@biomol.com). All the enzymes are recombinant human active domains from E. coli (Biomol). The fluorescent substrate has the sequence of (7-methoxycoumarin-4-yl) acetyl-Pro-Leu-Gly-Leu-N-3-(2,4-dinitrophenyl)-L-α,β-diaminopropionyl-Ala-Arg-NH2.AcOH. All the assays were conducted at room temperature with 96 well flat bottom black plate (Nalge Nunc International, Catalog number, 465200). Briefly, certain amount of enzyme in 89 ul of assay buffer (50 mM Hepes, 10 mM CaCl2, 0.05% Brij 35, pH 7.5) was incubated with (7 concentration per set) or without inhibitor (in 1 ul of DMSO, or 1 ul DMSO only) for 20 min. Then the enzymatic reaction was initiated by the addition of the substrate (40 uM in 10 ul of assay buffer and the final concentration of the substrate is 4 uM). The activity was determined by measuring the fluorescence at Ex/Em=328 nm/393 nm and it was linear within 2 hrs. The fluorescence was read at 0 and 20 or 40 min. The reading at 0 time would be considered as the background and subtracted from the final reading. The IC50 was obtained by plotting the fluorescences versus the concentrations of the inhibitors of each assay with Prism software. […] Mechanism studies reveal that the inhibitors are competitive. For competitive inhibitor: Ki=IC50/(1+[S]/Km)
In the assay conditions, [S](4 uM) is smaller than Km (20 uM for MMP-12). So Ki equal to IC50/1.2, which is little smaller than IC50, or roughly equal to IC50.

In a further assay the target is T2, MMP-1 (Homo sapiens, UniProt P03956).
T2 construct: All the enzymes are recombinant human active domains from E. coli (Biomol); purchased Biomol; host or cells: E. coli
T2 sequence (P03956 100-269 limits assumed): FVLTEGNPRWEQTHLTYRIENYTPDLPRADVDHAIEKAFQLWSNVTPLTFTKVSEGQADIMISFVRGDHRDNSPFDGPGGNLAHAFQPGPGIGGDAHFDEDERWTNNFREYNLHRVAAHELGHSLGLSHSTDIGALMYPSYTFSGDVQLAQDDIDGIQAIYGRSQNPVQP
Nature of the assay: MMP inhibitory assay, fluorescent substrate, MMP-1. On the procedure: as §1

The target of the next assay is T3, MMP-2 (Homo sapiens, UniProt P08253).
T3 construct: All the enzymes are recombinant human active domains from E. coli (Biomol); purchased Biomol; host or cells: E. coli
T3 sequence (P08253 110-446 limits assumed): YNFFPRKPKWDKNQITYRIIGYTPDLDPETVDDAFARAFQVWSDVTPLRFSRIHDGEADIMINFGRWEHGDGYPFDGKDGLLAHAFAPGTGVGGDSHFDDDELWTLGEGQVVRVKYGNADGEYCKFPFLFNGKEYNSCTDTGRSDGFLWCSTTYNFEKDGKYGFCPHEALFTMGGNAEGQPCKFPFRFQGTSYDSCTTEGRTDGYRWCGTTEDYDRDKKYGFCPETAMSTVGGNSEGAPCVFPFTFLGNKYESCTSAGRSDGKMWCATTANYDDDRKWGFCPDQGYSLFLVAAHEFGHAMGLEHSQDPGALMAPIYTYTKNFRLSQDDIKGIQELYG
The experiment in a line: MMP inhibitory assay, fluorescent substrate, MMP-2. On the procedure: as §1

A further assay addresses T4, MMP-3 (Homo sapiens, UniProt P08254).
T4 construct: All the enzymes are recombinant human active domains from E. coli (Biomol); purchased Biomol; host or cells: E. coli
The experiment in a line: MMP inhibitory assay, fluorescent substrate, MMP-3. On the procedure:
as §1

Another assay addresses T5, MMP-7 (Homo sapiens, UniProt P09237).
T5 construct: All the enzymes are recombinant human active domains from E. coli (Biomol); purchased Biomol; host or cells: E. coli
T5 sequence (P09237 95-267): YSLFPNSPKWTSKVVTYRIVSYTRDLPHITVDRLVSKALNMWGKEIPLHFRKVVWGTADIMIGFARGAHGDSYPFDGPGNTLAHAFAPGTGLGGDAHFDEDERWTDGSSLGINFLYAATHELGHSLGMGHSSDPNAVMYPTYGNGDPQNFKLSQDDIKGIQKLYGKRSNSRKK
Nature of the assay: MMP inhibitory assay, fluorescent substrate, MMP-7. As to the method: as §1

A further assay deals with T6, MMP-9 (Homo sapiens, UniProt P14780).
T6 construct: All the enzymes are recombinant human active domains from E. coli (Biomol); purchased Biomol; host or cells: E. coli
T6 sequence (P14780 107-444 limits assumed): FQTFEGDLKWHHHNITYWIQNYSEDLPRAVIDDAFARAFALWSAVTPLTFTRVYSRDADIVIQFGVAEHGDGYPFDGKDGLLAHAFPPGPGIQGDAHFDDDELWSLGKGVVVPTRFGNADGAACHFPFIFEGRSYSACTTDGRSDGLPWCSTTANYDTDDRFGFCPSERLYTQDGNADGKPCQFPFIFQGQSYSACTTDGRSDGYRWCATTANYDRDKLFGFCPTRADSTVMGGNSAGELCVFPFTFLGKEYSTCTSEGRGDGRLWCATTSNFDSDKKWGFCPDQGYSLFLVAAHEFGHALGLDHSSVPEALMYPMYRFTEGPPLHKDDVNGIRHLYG
The experiment in a line: MMP inhibitory assay, fluorescent substrate, MMP-9. On the procedure:
as §1

Another assay concerns the target T7, MMP-13 (Homo sapiens, UniProt P45452).
T7 construct: All the enzymes are recombinant human active domains from E. coli (Biomol); purchased Biomol; host or cells: E. coli
Nature of the assay: MMP inhibitory assay, fluorescent substrate, MMP-13. As to the method:
as §1

T4 sequence (P08254 100-272 limits assumed): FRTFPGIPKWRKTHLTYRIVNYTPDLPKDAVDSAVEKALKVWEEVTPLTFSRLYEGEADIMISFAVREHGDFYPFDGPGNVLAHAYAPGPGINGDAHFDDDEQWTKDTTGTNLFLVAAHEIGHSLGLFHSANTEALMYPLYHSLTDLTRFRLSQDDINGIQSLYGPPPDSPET

With `O=C1NC(=O)C(c2occc2Sc2ccc(OCc3ccccc3)cc2)N1` (stereo not drawn) [IVa, 5-[3-(4-Benzoxyphenylthio)fur-2-yl]imidazoline-2,4-dione], the IC50 (commonly the concentration that gives 50% inhibition) is 13 nM at MMP-12; over 40000 nM at MMP-1; 447 nM at MMP-2; 2100 nM at MMP-3; 63700 nM on MMP-7; 727 nM at MMP-9. Also, at MMP-13, the IC50 came to 1070 nM.

For the molecule `O=C1NC(=O)C(c2occc2Sc2ccc(OCc3ccc(OCc4ccccc4)cc3)cc2)N1` (stereo not drawn) [IVb, 5-{3-[4-(4-Benzyloxybenzyloxy)phenylthio]fur-2-yl}imidazolidine-2,4-dione], the IC50 on MMP-12 is 84 nM; on MMP-1, over 40000 nM; on MMP-2, 1180 nM; on MMP-3 it was 383 nM; on MMP-7, 1880 nM; on MMP-9, 4470 nM. In addition, at MMP-13, the IC50 amounted to 335 nM.

As for `O=C1NC(=O)C(c2occc2Sc2ccc(OCc3ccc(-c4ccccc4)cc3)cc2)N1` (stereo not drawn) [IVc, 5-{3-[4-(4-biphenylmethoxy)phenylthio]fur-2-yl}imidazoline-2,4-dione], the IC50 on MMP-12 was 131 nM; on MMP-1 it was over 40000 nM; at MMP-2, 1740 nM; on MMP-3, 35900 nM; on MMP-7, 1040 nM; on MMP-13, 707 nM.

With `COc1ccc(COc2ccc(Sc3ccoc3C3NC(=O)NC3=O)cc2)cc1` (stereo not drawn) [IVd, 5-{3-[4-(4-Methoxybenzyloxy)phenylthio]fur-2-yl}imidazolidine-2,4-dione], the IC50 is 10 nM on MMP-12; over 40000 nM on MMP-1; 422 nM on MMP-2; 318 nM at MMP-3; 7600 nM on MMP-7; 740 nM at MMP-9. Besides, the IC50 at MMP-13 came out at 260 nM.

Turning to `COc1cccc(COc2ccc(Sc3ccoc3C3NC(=O)NC3=O)cc2)c1` (stereo not drawn) [IVe, 5-{3-[4-(3-Methoxybenzyloxy)phenylthio]fur-2-yl}imidazolidine-2,4-dione], the IC50 on MMP-12 is 19 nM; on MMP-1, over 40000 nM; at MMP-2, 2010 nM; at MMP-3 it was 3620 nM; at MMP-7, 27400 nM; at MMP-9, 3760 nM. Besides, the IC50 at MMP-13 was 2440 nM.

`COc1ccccc1COc1ccc(Sc2ccoc2C2NC(=O)NC2=O)cc1` (stereo not drawn) [IVf, 5-{3-[4-(2-Methoxybenzyloxy)phenylthio]fur-2-yl}imidazolidine-2,4-dione]: the IC50 at MMP-12 is 202 nM; at MMP-1 it was over 40000 nM; on MMP-2, 233000 nM; at MMP-9, 30400 nM; on MMP-13, 11600 nM.

With `COc1cc(COc2ccc(Sc3ccoc3C3NC(=O)NC3=O)cc2)cc(OC)c1` (stereo not drawn) [IVg, 5-{3-[4-(3,5-dimethoxybenzoxy)phenylthio]fur-2yl}imidazoline-2,4-dione], the half-maximal inhibitory concentration (IC50) on MMP-12 is 264 nM; at MMP-1, over 40000 nM; at MMP-3, 7950 nM; at MMP-9 it was 35800 nM; on MMP-13 it was 16800 nM.

Turning to `O=C1NC(=O)C(c2occc2Sc2ccc(OCc3ccc(Cl)cc3)cc2)N1` (stereo not drawn) [IVh, 5-{3-[4-(4-Chlorobenzyloxy)phenylthio]fur-2-yl}imidazolidine-2,4-dione], the IC50 on MMP-12 is 7 nM; on MMP-1, over 40000 nM; at MMP-2, 235 nM; on MMP-3, 157 nM; at MMP-7 it was 7450 nM; on MMP-9 it was 255 nM. In addition, the IC50 at MMP-13 was 329 nM.

For `O=C1NC(=O)C(c2occc2Sc2ccc(OCc3cccc(Cl)c3)cc2)N1` (stereo not drawn) [IVi, 5-{3-[4-(3-Chlorobenzyloxy)phenylthio]fur-2-yl}imidazolidine-2,4-dione], the IC50 at MMP-12 was 22 nM; on MMP-1 it was over 40000 nM; at MMP-2, 1020 nM; at MMP-3, 298 nM; at MMP-7 it was 676000 nM; on MMP-9 it was 1440 nM. Also, the IC50 on MMP-13 stood at 773 nM.

As for `O=C1NC(=O)C(c2occc2Sc2ccc(OCc3ccccc3Cl)cc2)N1` (stereo not drawn) [IVj, 5-{3-[4-(2-Chlorobenzyloxy)phenylthio]fur-2-yl}imidazolidine-2,4-dione], the IC50 on MMP-12 is 57 nM; at MMP-1, over 40000 nM; at MMP-2, 1840 nM; on MMP-3, 1090 nM; on MMP-9 it was 1130 nM; at MMP-13 it was 2410 nM.

`Cc1ccc(COc2ccc(Sc3ccoc3C3NC(=O)NC3=O)cc2)cc1` (stereo not drawn) [IVk, 5-{3-[4-(4-Methylbenzyloxy)phenylthio]fur-2-yl}imidazolidine-2,4-dione]: the IC50 is 15 nM on MMP-12; over 40000 nM on MMP-1; 612 nM on MMP-2; 586 nM on MMP-3; 30900 nM on MMP-7; 472 nM at MMP-9. Besides, the IC50 on MMP-13 came out at 643 nM.

For `Cc1cccc(COc2ccc(Sc3ccoc3C3NC(=O)NC3=O)cc2)c1` (stereo not drawn) [IVo, 5-{3-[4-(3-Methyl-benzyloxy)phenylthio]fur-2-yl}imidazolidine-2,4-dione], the IC50 at MMP-12 was 11 nM; at MMP-1, over 40000 nM; at MMP-2, 1110 nM; at MMP-3, 1350 nM; at MMP-7, 46700 nM; on MMP-9, 2950 nM. The IC50 at MMP-13 was determined as 1950 nM.

In the case of `Cc1ccccc1COc1ccc(Sc2ccoc2C2NC(=O)NC2=O)cc1` (stereo not drawn) [IVp, 5-{3-[4-(2-Methyl-benzyloxy)phenylthio]fur-2-yl}imidazolidine-2,4-dione], the IC50 at MMP-12 was 42 nM; on MMP-1, over 40000 nM; at MMP-2, 7030 nM; at MMP-3 it was 4040 nM; on MMP-9, 2080 nM; at MMP-13, 4260 nM.

`O=C1NC(=O)C(c2occc2Sc2ccc(OCc3cccc(C(F)(F)F)c3)cc2)N1` (stereo not drawn) [IVq, 5-{3-[4-(3-Trifluoromethyl-benzyloxy)phenylthio]fur-2yl}imidazolidine-2,4-dione]: the IC50 was 34 nM on MMP-12; over 40000 nM on MMP-1; 2130 nM at MMP-2; 3310 nM at MMP-3; 2880 nM at MMP-9; 2060 nM at MMP-13.
